Drawing on ChEMBL document CHEMBL1201862, “PubChem BioAssay data set” (2004), this text covers AC50, IC50 and EC50 for one compound.

Common to all, as to assay type: functional
The target in experiment [1] is T1, Replicative DNA helicase DnaB (Mycobacterium tuberculosis, UniProt P9WMR3).
T1 sequence (P9WMR3 whole entry): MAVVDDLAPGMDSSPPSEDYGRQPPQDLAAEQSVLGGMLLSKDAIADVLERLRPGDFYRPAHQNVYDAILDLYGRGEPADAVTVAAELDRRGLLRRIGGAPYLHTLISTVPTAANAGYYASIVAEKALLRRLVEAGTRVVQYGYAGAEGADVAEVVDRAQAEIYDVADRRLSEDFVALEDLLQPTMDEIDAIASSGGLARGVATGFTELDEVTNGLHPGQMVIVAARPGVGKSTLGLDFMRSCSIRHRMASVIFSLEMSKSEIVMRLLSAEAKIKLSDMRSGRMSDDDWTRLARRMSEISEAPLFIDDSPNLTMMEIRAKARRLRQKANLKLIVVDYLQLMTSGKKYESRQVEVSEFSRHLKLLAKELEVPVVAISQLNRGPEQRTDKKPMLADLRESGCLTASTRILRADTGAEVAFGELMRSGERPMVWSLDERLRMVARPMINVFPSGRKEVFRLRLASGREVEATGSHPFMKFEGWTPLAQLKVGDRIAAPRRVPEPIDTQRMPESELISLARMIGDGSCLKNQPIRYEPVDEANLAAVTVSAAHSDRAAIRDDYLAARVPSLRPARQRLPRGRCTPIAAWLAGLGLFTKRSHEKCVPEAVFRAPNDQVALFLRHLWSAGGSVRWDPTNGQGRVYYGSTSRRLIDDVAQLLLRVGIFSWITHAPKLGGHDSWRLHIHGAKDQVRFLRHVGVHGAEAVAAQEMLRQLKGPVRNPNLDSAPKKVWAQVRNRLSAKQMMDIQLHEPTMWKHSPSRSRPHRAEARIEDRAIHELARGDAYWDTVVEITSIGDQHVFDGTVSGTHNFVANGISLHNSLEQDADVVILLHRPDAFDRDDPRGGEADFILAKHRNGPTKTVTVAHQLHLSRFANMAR
Briefly: DnaB intein splicing inhibitors, dose response, biochemical, cell-free fluorescence (AID 449749).

Experiment [2] has as its target Glucose-6-phosphate 1-dehydrogenase (Homo sapiens, UniProt P11413). Briefly: inhibition of Homo sapiens G6PD, dose series – biochemical, fluorescence, selectivity assay for P. falciparum G6PD inhibitor project, dose response (AID 504792).
The target of experiment [3] is T2, Protein RecA (Mycobacterium tuberculosis, UniProt P9WHJ3).
T2 sequence (P9WHJ3 whole entry): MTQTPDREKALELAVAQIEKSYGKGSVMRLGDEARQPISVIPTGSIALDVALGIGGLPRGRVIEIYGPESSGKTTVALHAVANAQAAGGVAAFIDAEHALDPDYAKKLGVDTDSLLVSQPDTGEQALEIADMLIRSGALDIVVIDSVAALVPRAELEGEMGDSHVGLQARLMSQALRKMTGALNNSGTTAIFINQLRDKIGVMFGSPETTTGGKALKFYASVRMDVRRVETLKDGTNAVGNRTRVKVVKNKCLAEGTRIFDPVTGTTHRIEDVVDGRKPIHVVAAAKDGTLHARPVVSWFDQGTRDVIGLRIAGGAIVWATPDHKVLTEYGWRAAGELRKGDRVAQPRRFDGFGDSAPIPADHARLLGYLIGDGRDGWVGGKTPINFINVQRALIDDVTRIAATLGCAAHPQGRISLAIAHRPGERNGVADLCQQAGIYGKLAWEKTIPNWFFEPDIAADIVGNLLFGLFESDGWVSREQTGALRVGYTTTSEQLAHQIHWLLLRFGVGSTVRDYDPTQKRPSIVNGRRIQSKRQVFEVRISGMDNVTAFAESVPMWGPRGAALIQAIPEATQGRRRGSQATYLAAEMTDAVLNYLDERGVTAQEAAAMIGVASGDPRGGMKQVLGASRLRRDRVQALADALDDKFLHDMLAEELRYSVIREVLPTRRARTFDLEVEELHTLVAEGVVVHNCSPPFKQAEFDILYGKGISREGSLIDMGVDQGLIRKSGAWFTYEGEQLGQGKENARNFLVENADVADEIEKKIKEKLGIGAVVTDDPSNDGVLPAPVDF
Nature of the experiment: Fluorescence Cell-Free Homogeneous Dose Retest to Identify Inhibitors of RecA-Intein Splicing Activity. [Related pubchem assays (depositor defined):AID2097, AID2223, AID489010, AID492950].

The source made the active and inactive calls.

Sequence of Glucose-6-phosphate 1-dehydrogenase (P11413 whole entry): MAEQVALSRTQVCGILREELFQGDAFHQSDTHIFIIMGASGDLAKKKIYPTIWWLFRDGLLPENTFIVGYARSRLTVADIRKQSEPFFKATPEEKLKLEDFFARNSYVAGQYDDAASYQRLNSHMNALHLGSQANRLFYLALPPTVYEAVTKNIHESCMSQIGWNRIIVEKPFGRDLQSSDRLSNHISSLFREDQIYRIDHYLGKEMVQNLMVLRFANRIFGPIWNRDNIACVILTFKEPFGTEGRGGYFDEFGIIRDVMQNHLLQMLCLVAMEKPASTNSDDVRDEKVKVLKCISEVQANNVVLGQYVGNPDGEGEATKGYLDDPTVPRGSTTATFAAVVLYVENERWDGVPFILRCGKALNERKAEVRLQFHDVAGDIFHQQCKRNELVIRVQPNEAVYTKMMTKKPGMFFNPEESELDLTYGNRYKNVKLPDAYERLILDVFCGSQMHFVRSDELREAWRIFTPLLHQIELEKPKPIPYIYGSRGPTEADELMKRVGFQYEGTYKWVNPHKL

As to `Cc1ccc(S(=O)(=O)N(C(=O)c2ccncc2)c2ccc(OC(=O)c3ccncc3)c3ccccc23)cc1`, the AC50 (commonly the concentration giving half of the maximal activity seen) in experiment [1] is 1510 nM (active). For the same compound, the IC50 (usually the concentration that gives 50% inhibition) in experiment [2] was > 80000 nM (inactive). The 50% effective concentration (EC50) (usually the concentration that produces a half-maximal response) in experiment [3] is 315 nM (active).
